From patent US11718618B2, “Substituted pyrido[2,1-a]isoquinolines as VMAT2 inhibitors” (priority 2021, dated 2023)

The compounds below were run against human VMAT2 (Homo sapiens (Human), UniProt Q05940) (assay: VMAT2 radioligand binding, 3H-dihydrotetrabenazine competition on human platelet homogenate). Conditions: 10 nM 3H-dihydrotetrabenazine, human platelet homogenate, 25° C., 90 minutes; read-out: VMAT2 Ki.
Experimental: Examples of techniques for determining the capability of a compound to inhibit VMAT2 are provided below. The procedure was adapted from that described previously (see, e.g., Near, (1986), Mol. Pharmacol. 30: 252-57; Teng, et al., J. Neurochem. 71, 258-65, 1998). Homogenates from human platelets were prepared by homogenization and then washed by centrifugation as described previously (see, e.g., Hoare et al., (2003) Peptides 24:1881-97).
The human VMAT2 Ki values for the compounds listed in Table 15A and Table 15B were determined using the following procedures. Compound dilution series in DMSO were generated from either powder stocks by hand, or from DMSO stocks using serial dilution on a Vantage (Hamilton), or direct dilution using an Echo 655 (Beckman). In a total volume of 0.145 to 0.150 mL in low-binding 96-well plates (Corning #3605), twelve concentrations of test compound were competed against 10 nM ^3H-dihydrotetrabenezine (American Radiolabeled Chemicals) on human platelet homogenate (30 μg membrane protein per well) in VMAT2 binding buffer (Dulbecco's phosphate buffered saline, 1 mM EDTA, pH 7.4). Following incubation at 25° C. for 90 minutes, bound radioligand was collected by rapid filtration onto either GF/B or GF/C glass fiber filters, pretreated with 0.100 polyethylenimine, using either a Unifilter-96 Harvester (PerkinElmer) or Microlab Star (Hamilton). Following harvesting the filter plates were washed with 0.8 mL VMAT2 binding buffer, and bound radioligand was quantified by scintillation counting using a Topcount NXT or Microplate Counter Microbeta (PerkinElmer).

Sequence of human VMAT2 (Q05940 whole entry): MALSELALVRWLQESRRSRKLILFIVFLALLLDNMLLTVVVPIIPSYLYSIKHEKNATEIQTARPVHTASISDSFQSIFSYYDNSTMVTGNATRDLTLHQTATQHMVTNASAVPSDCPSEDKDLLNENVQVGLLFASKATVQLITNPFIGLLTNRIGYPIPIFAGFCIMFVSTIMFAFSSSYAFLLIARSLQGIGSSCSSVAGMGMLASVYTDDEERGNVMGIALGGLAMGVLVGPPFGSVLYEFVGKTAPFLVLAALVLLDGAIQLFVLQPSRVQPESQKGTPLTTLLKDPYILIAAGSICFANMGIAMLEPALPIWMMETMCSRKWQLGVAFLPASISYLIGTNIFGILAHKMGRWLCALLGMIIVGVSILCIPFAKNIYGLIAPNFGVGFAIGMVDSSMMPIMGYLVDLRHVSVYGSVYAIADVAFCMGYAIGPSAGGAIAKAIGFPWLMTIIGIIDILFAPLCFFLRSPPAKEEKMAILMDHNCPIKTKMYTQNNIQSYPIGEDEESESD

`COc1cc2c(cc1OCC1CN(C)C1)CCN1C[C@@H](CC(C)(C)C)[C@H](O)C[C@H]21` [Compound 4-37, (2R,3R,11bR)-3-(2,2-dimethylpropyl)-10-methoxy-9-[(1-methylazetidin-3-yl)methoxy]-1H,2H,3H,4H,6H,7H,11bH-pyrido[2,1-a]isoquinolin-2-ol] and `COc1cc2c(cc1OCC1CCS(=O)(=O)CC1)CCN1C[C@@H](CC(C)(C)C)[C@H](O)C[C@H]21` [Compound 4-97, 4-({[(2R,3R,11bR)-3-(2,2-dimethylpropyl)-2-hydroxy-10-methoxy-1H,2H,3H,4H,6H,7H,11bH-pyrido[2,1-a]isoquinolin-9-yl]oxy}methyl)-1λ^6-thiane-1,1-dione] cannot be ordered by Ki: > 10000 nM for the first, > 10000 nM for the second.

Compared with `COc1cc2c(cc1OC(C)C(F)(F)F)CCN1C[C@@H](CC(C)(C)C)[C@H](O)C[C@H]21` (stereo partly drawn) [Compound 4-39, (2R,3R,11bR)-3-(2,2-dimethylpropyl)-10-methoxy-9-[(1,1,1-trifluoropropan-2-yl)oxy]-1H,2H,3H,4H,6H,7H,11bH-pyrido[2,1-a]isoquinolin-2-ol], `COc1cc2c(cc1OC)[C@@H]1C[C@H](O)[C@@H](CC(C)(C)C)CN1CC2` [Compound 5-3, (2S,3S,11bS)-3-(2,2-dimethylpropyl)-9,10-dimethoxy-1H,2H,3H,4H,6H,7H,11bH-pyrido[2,1-a]isoquinolin-2-ol] is 58-fold higher in Ki: 12 nM for the first, 700 nM for the second. The first binds more tightly here.

Going from `COC[C@H](O)COc1cc2c(cc1OC)[C@H]1C[C@@H](O)[C@H](CC(C)(C)C)CN1CC2` [Compound 4-48, (2R,3R,11bR)-3-(2,2-dimethylpropyl)-9-[(2S)-2-hydroxy-3-methoxypropoxy]-10-methoxy-1H,2H,3H,4H,6H,7H,11bH-pyrido[2,1-a]isoquinolin-2-ol] to `COc1cc2c(cc1OC[C@H](O)CO)CCN1C[C@@H](CC(C)(C)C)[C@H](O)C[C@H]21` [Compound 4-83, (2R)-3-{[(2R,3R,11bR)-3-(2,2-dimethylpropyl)-2-hydroxy-10-methoxy-1H,2H,3H,4H,6H,7H,11bH-pyrido[2,1-a]isoquinolin-9-yl]oxy}propane-1,2-diol], the Ki falls from 313 nM to 207 nM (1.5-fold).

Going from `COc1cc2c(cc1OCC1(C(F)(F)F)CCCC1)CCN1C[C@@H](CC(C)(C)C)[C@H](O)C[C@H]21` [Compound 4-80, (2R,3R,11bR)-3-(2,2-dimethylpropyl)-10-methoxy-9-{[1-(trifluoromethyl)cyclo-pentyl]methoxy}-1H,2H,3H,4H,6H,7H,11bH-pyrido[2,1-a]isoquinolin-2-ol] to `COc1cc2c(cc1OCC1(S(C)(=O)=O)CC1)CCN1C[C@@H](CC(C)(C)C)[C@H](O)C[C@H]21` [Compound 4-96, (2R,3R,11bR)-3-(2,2-dimethylpropyl)-9-[(1-methanesulfonylcyclo-propyl)methoxy]-10-methoxy-1H,2H,3H,4H,6H,7H,11bH-pyrido[2,1-a]isoquinolin-2-ol], the Ki rises from 133 nM to > 10000 nM. The first binds more tightly here.

`COc1cc2c(cc1OCc1ccc(C(F)(F)F)cc1)CCN1C[C@@H](CC(C)(C)C)[C@H](O)C[C@H]21` [Compound 4-81, (2R,3R,11bR)-3-(2,2-dimethylpropyl)-10-methoxy-9-{[4-(trifluoro-methyl)phenyl]methoxy}-1H,2H,3H,4H,6H,7H,11bH-pyrido[2,1-a]isoquinolin-2-ol] and `COc1cc2c(cc1OCc1ccc(C#N)cn1)CCN1C[C@@H](CC(C)(C)C)[C@H](O)C[C@H]21` [Compound 4-82, 6-({[(2R,3R,11bR)-3-(2,2-dimethylpropyl)-2-hydroxy-10-methoxy-1H,2H,3H,4H,6H,7H,11bH-pyrido[2,1-a]isoquinolin-9-yl]oxy}methyl)pyridine-3-carbonitrile] are within 1.5-fold of each other in Ki: 177 nM for the first, 198 nM for the second.

`COc1cc2c(cc1OCC(=O)N(C)CC(F)(F)F)CCN1C[C@@H](CC(C)(C)C)[C@H](O)C[C@H]21` [Compound 4-84, 2-{[(2R,3R,11bR)-3-(2,2-dimethylpropyl)-2-hydroxy-10-methoxy-1H,2H,3H,4H,6H,7H,11bH-pyrido[2,1-a]isoquinolin-9-yl]oxy}-N-methyl-N-(2,2,2-trifluoroethyl)acetamide] and `CCC(O)(CC)COc1cc2c(cc1OC)[C@H]1C[C@@H](O)[C@H](CC(C)(C)C)CN1CC2` [Compound 4-93, (2R,3R,11bR)-3-(2,2-dimethylpropyl)-9-(2-ethyl-2-hydroxybutoxy)-10-methoxy-1H,2H,3H,4H,6H,7H,11bH-pyrido[2,1-a]isoquinolin-2-ol] are within 1.5-fold of each other in Ki: 272 nM for the first, 281 nM for the second.

Going from `COc1cc2c(cc1OCCCS(C)(=O)=O)CCN1C[C@@H](CC(C)(C)C)[C@H](O)C[C@H]21` [Compound 4-85, (2R,3R,11bR)-3-(2,2-dimethylpropyl)-9-(3-methanesulfonylpropoxy)-10-methoxy-1H,2H,3H,4H,6H,7H,11bH-pyrido[2,1-a]isoquinolin-2-ol] to `COc1cc2c(cc1OCCCO)CCN1C[C@@H](CC(C)(C)C)[C@H](O)C[C@H]21` [Compound 4-89, (2R,3R,11bR)-3-(2,2-dimethylpropyl)-9-(3-hydroxypropoxy)-10-methoxy-1H,2H,3H,4H,6H,7H,11bH-pyrido[2,1-a]isoquinolin-2-ol], the Ki falls from 276 nM to 140 nM (2-fold).

`COc1cc2c(cc1OCS(=O)(=O)N(C)C)CCN1C[C@@H](CC(C)(C)C)[C@H](O)C[C@H]21` [Compound 4-86, 1-{[(2R,3R,11bR)-3-(2,2-dimethylpropyl)-2-hydroxy-10-methoxy-1H,2H,3H,4H,6H,7H,11bH-pyrido[2,1-a]isoquinolin-9-yl]oxy}-N,N-dimethylmethanesulfonamide] and `COc1cc2c(cc1OCC1(OS(C)(=O)=O)CC1)CCN1C[C@@H](CC(C)(C)C)[C@H](O)C[C@H]21` [Compound 4-94, 1-({[(2R,3R,11bR)-3-(2,2-dimethylpropyl)-2-hydroxy-10-methoxy-1H,2H,3H,4H,6H,7H,11bH-pyrido[2,1-a]isoquinolin-9-yl]oxy}methyl)cyclopropyl methanesulfonate] are within 1.5-fold of each other in Ki: 287 nM for the first, 387 nM for the second.

First: COc1cc2c(cc1OC1CCN(CC(F)(F)F)C1=O)CCN1C[C@@H](CC(C)(C)C)[C@H](O)C[C@H]21 (stereo partly drawn) [Compound 4-87, 3-{[(2R,3R,11bR)-3-(2,2-dimethylpropyl)-2-hydroxy-10-methoxy-1H,2H,3H,4H,6H,7H,11bH-pyrido[2,1-a]isoquinolin-9-yl]oxy}-1-(2,2,2-trifluoroethyl)pyrrolidin-2-one]
Second: COc1cc2c(cc1OC)[C@@H]1C[C@@H](O)[C@@H](CC(C)(C)C)CN1CC2 [Compound 5-4, (2R,3S,11bS)-3-(2,2-dimethylpropyl)-9,10-dimethoxy-1H,2H,3H,4H,6H,7H,11bH-pyrido[2,1-a]isoquinolin-2-ol]
The Ki of the first is lower: 650 nM for the first, > 10000 nM for the second.

For `COc1cc2c(cc1OCc1ncno1)CCN1C[C@@H](CC(C)(C)C)[C@H](O)C[C@H]21` [Compound 4-95, (2R,3R,11bR)-3-(2,2-dimethylpropyl)-10-methoxy-9-(1,2,4-oxadiazol-5-ylmethoxy)-1H,2H,3H,4H,6H,7H,11bH-pyrido[2,1-a]isoquinolin-2-ol], the Ki was > 10000 nM.
